Reference: US20050228038A1, “11-Beta hydroxysteroid dehydrogenase type 1 inhibitors as anti-obesity/anti-diabetes compounds and 17-beta hydrosteroid dehydrogenase type I inhibitors as useful agents for the treatment of cancers, especially breast cancer” (priority 2004, published 2005)

Biological target: T1, 17betaHSD1 (Homo sapiens, UniProt P14061)
T1 sequence (P14061 1-328): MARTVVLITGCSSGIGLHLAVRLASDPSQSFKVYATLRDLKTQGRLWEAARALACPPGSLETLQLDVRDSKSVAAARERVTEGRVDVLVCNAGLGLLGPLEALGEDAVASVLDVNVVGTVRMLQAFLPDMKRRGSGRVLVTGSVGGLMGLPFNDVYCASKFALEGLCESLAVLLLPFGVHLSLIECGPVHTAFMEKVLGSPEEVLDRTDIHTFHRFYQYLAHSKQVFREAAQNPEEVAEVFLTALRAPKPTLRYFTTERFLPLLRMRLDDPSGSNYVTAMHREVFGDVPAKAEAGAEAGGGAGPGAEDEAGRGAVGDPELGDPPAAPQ
Assay: screen of gossypol related compounds against 17betaHSD1 (enzyme activity)
Format: biochemical
Conditions: for Ki: read-out: inhibition constant
Procedure: Seven gossypol related compounds were screened against 17betaHSD1. […] Four gossypol derivatives, in which the aldehyde functional group is modified, were tested. The peri-acylated nitrites, gossylic nitrile diacetate and gossylic nitrile divalerate, represent compounds in which the aldehyde group is [drawing 13] converted to a nitrile, and the peri hydroxyl of gossypol is derivatized.
Gossylic iminolactone and gossylic lactone were the most promising compounds, producing 80-90% reduction in enzyme activity. The inhibition constants for gossylic lactone and gossylic iminolactone were determined to be 2.2 and 4.3 uM respectively.

| Ki | Compound | also measured |
| --- | --- | --- |
| 4.3 µM | Cc1cc2c(C(C)C)c(O)c(O)c3c2c(c1-c1c(C)cc2c(C(C)C)c(O)c(O)c4c2c1OC4=N)OC3=N [Gossylic iminolactone, gossylic iminolactone] |  |
|  | CC(=O)Oc1c(-c2c(C)cc3c(C(C)C)c(O)c(O)c(C#N)c3c2OC(C)=O)c(C)cc2c(C(C)C)c(O)c(O)c(C#N)c12 [Gossylic nitrile diacetate, gossylic nitrile diacetate] | reduction in enzyme activity (concentrations not given): 13% |
| 2.2 µM | Cc1cc2c(C(C)C)c(O)c(O)c3c2c(c1-c1c(C)cc2c(C(C)C)c(O)c(O)c4c2c1OC4=O)OC3=O [gossylic lactone] |  |
|  | CCCCC(=O)Oc1c(-c2c(C)cc3c(C(C)C)c(O)c(O)c(C#N)c3c2OC(=O)CCCC)c(C)cc2c(C(C)C)c(O)c(O)c(C#N)c12 [gossylic nitrile divalerate] | reduction in enzyme activity (in words) (concentrations not given): no reduction |
